Test results as given in US10383849B2, “Use of an acetylcholinesterase inhibitor and idalopirdine for reducing falls in Parkinson's disease patients” (H. Lundbeck A/S, priority 2016, dated 2019).

What was measured:
[1] = test system: DL rats (dual striatal-dopaminergic, cortical cholinergic system lesions); experiment: MCMCT rotating rod with active distractor (water retrieval); type: in vivo, Sprague Dawley rats; conditions: for number of animals that retrieved water in at least one trial: of 14 DL rats per group, licking water for at least 1 s, DL/VEH 9, SH/VEH 13
Method: (§1) Of the 70 rats, 56 (28 females and 28 males) received dual striatal-dopaminergic, corticalcholinergic system lesions (DL) and were randomly assigned to 4 treatment conditions after surgeries (n=14/group, 7/sex). 14 rats (7/sex) received sham lesions. 6-OHDA was delivered bilaterally to dopamine terminals in the dorsal striatum (Sigma-Aldrich; 6.0 μg/2 μL/infusion, bolus; dissolved in 0.9% NaCl with 0.1% ascorbic acid; two infusion sites per hemisphere: AP+1.2 and +0.2 mm; ML ±2.5 and ±3.0 mm relative to bregma; DV −4.8 and −5.0 mm from skull). Desipramine hydrochloride (10 mg/kg; i.p.; Sigma-Aldrich) was administered to rats receiving 6-OHDA infusions 30 min prior to surgeries for protection of noradrenergic neurons^4. Basal forebrain cholinergic neurons situated in the nucleus basalis and substantia innominate were targeted with immunotoxin 192 IgG-saporin (Advanced Targeting Systems) in aCSF infused bilaterally (120 ng/μL; 0.5 μL/hemisphere; AP −0.8; ML ±2.9; DV −7.8). Sham rats received equal volumes of 0.9% NaCl with 0.1% ascorbic acid (striatum) and aCSF (basal forebrain) without neurotoxins.
Two distractors were presented during traversals. First, a passive doorframe distractor, comprised of a 46.0×39.4 cm surface with a door-frame shape cutout of 20 cm×10 cm made of foam core, was incorporated into the MCMCT test sequence. The distractor was placed at the midway point along the beam (100 cm mark) with side jambs 3.5 cm from the rod surface on both sides and the top border of the doorframe cutout 11 cm above the flat rod surface. […] Second, animals were tested with an active distractor task in which a water reward (3 drops of water; ˜150 μL) was presented on a platform (4.9 cm diameter) during traversals. The platform was also placed at the 100 cm mark, with 2-3 cm separating the rod and the platform.
Rats were first acclimated to the task in 4 shaping trials (test days 8 and 9). In these trials rats were placed directly on the stationary (non-rotating) rod adjacent to the platform (approximately midway across the beam) and allowed to drink the water from the platform. After shaping trials, rats underwent 4 test trials in which the rats performed unassisted traversals of the rotating rod (alternating directions) with presentations of water rewards. In two other test days (10 and 12), rats performed 10 test runs per day. In addition to falls, the number of water rewards earned, defined as licking/drinking water from the platform for ≥1 sec, were counted. All trials were recorded using a system of 4 bullet cameras (KT&C; model KPCS190SH Black/White Bullet Camera with ⅓″ SONY Super HAD CCD) with rotatable bases that were fastened to the outer support frame of the outer side of the apparatus by hand clamps. Performance measures were analyzed by video playback by experimenters blind to the lesion status and treatment regimen of the rats
Donepezil and idalopirdine were dissolved in 5% 2-hydroxypropyl-beta-cyclodextrin vehicle solution. Rats were divided into the following drug administration groups (14 per group, 7 per sex): sham-lesioned and administered vehicle (SH/VEH), DL and vehicle (DL/VEH), DL and donepezil (DL/DON), DL and idalopirdine (DL/IDL), and DL and idalopirdine plus donepezil (DL/DON+IDL). Solutions were prepared the night before administration and were replaced every 6 days. DON and IDL were dissolved in the same solution for the combination treatment. […]

[2] = test system: DL rats (dual striatal-dopaminergic, cortical cholinergic system lesions); experiment: MCMCT rotating rod with passive doorframe distractor (test days 6, 7, 11); type: in vivo, Sprague Dawley rats; conditions: compared with SH/VEH rats
Method: Of the 70 rats, 56 (28 females and 28 males) received dual striatal-dopaminergic, corticalcholinergic system lesions (DL) and were randomly assigned to 4 treatment conditions after surgeries (n=14/group, 7/sex). 14 rats (7/sex) received sham lesions. 6-OHDA was delivered bilaterally to dopamine terminals in the dorsal striatum (Sigma-Aldrich; 6.0 μg/2 μL/infusion, bolus; dissolved in 0.9% NaCl with 0.1% ascorbic acid; two infusion sites per hemisphere: AP+1.2 and +0.2 mm; ML ±2.5 and ±3.0 mm relative to bregma; DV −4.8 and −5.0 mm from skull). […]
Complex movement performance measures including fall propensity were assessed using the MCMCT (for details and an illustration see Kucinski, A. et al (2013) Modelling fall propensity in Parkinson's disease: Deficits in the attentional control of complex movements in rats with cortical-cholinergic and striatal-dopaminergic deafferentation. J Neurosci, 33, 16522-16539). […]
Falls, slips, and traversal time were assessed as described in Kucinski, A. et al (2013) Modelling fall propensity in Parkinson's disease: Deficits in the attentional control of complex movements in rats with cortical-cholinergic and striatal-dopaminergic deafferentation. […] A slip was scored when any of the rats' paws lost contact with the surface of the rod and extended below the lower horizontal border of the rod. […]

[3] = test system: DL rats (dual striatal-dopaminergic, cortical cholinergic system lesions); experiment: MCMCT rod traversal, stationary and rotating rod (test days 2-5), Example 1; type: in vivo, Sprague Dawley rats; conditions: for number of slips: rod days 2-5, DL/VEH 2.04+0.16, SH/VEH 1.60+0.11; for traversal speed (time per rod traversal): rod days 2-5, DL/VEH 4.62±0.25 s, SH/VEH 3.96±0.19 s, mean±SEM; for frequency of falls during rod traversal: s.c. 30 min before MCMCT, across all rod conditions days 2-5, compared with DL/VEH
Method: Adult male and female Sprague Dawley rats (Harlan; N=70; 35 males and 35 females) between 3 and 6 months of age were individually housed in opaque single standard cages (27.70 cm×20.30 cm) in a temperature- and humidity-controlled environment (23° C., 45%). […] The animals were maintained under a 12:12 hour light/dark schedule (lights on at 8:00 AM). Food (Rodent Chow; Harlan Teklad) was available ad libitum. Water access was gradually restricted over a 7-day period (12, 8, 5, 3, 1, 0.5, 0.25 hrs of water access per day) in the week before pre- and postsurgery behavioral testing. During testing, water was provided as rewards for correct responses during SAT performance and following beam traversals on the MCMCT (see below). Rats were also provided water ad libitum for 15 min following SAT performance each day.
Following pre-surgery training, animals underwent stereotaxic lesion surgeries followed by 4 weeks of recovery. During the final week of recovery animals were gradually water restricted. Drug effects were then assessed with 12 consecutive days of SAT and MCMCT sessions (see Table 1 for the battery of MCMCT test conditions):
Drug or vehicle injections were administered 30 minutes prior to SAT performance (˜9:30 injections, SAT testing 10:00-10:45 a.m.) and in the afternoon before MCMCT testing (˜3:30-6:00 p.m.). For the MCMCT runs, rats were injected individually so that trials began exactly 30 minutes after injection for each animal.
as §1
Complex movement performance measures including fall propensity were assessed using the MCMCT (for details and an illustration see Kucinski, A. et al (2013) Modelling fall propensity in Parkinson's disease: Deficits in the attentional control of complex movements in rats with cortical-cholinergic and striatal-dopaminergic deafferentation. J Neurosci, 33, 16522-16539). This beam traversal apparatus was designed to tax the ability of rats to perform attention demanding movements and correct for stepping errors while crossing a narrow square rod surface (2.54 cm2). The ends of the beam (2.0 m length) were held in sockets that allowed the rod to be rotated by a gear motor (10 RPM) coupled to one end of the beam element. Traversal of the rod, particularly when rotating, reliably generated falls and other movement impairments in rats with dual lesions of striatal dopaminergic and cortical cholinergic inputs. A flat plank surface (13.3 cm wide) was also used to assess basic motor capacity and for habituation to the apparatus. Two identical platforms (23.0×31.5 cm area) situated at the opposite ends of the beam were surrounded by retractable walls (27.0 cm height) to form end-box structures. The walls are raised and lowered manually and secured in position by a friction clamp which rides in a vertical slot in the support structure under the platform. […]

patients with AD = conditions: compared to donepezil treated patients; cited from earlier work

| Compound | rod traversal performance in the presence of the active distractor ([1]; DL rats) | water retrieval count ([1]; DL rats, multiple comparisons (FIG. 3B)) | number of animals that retrieved water in at least one trial [1] | doorframe-associated falls (fall rates in the presence of the doorframe) [2] | number of slips [3] | traversal speed (time per rod traversal) [3] | frequency of falls during rod traversal [3] | secondary endpoints including measures of global impression and daily living activities (patients with AD) |
| --- | --- | --- | --- | --- | --- | --- | --- | --- |
| COc1cc2c(cc1OC)C(=O)C(CC1CCN(Cc3ccccc3)CC1)C2 (centres unmarked) [DON, donepezil] | did not significantly improve the performance | not significantly lower than DL/VEH | 10 | experienced more doorframe-associated falls than SH/VEH rats | 2.04+0.14 | 4.48 ± 0.36 s | tended to be lower than in DL/VEH rats but the effect did not reach significance | – |
| Fc1ccc2c(CCNCc3cccc(OCC(F)(F)C(F)F)c3)c[nH]c2c1 [IDL, N-(2-(6-fluoro-1H-indol-3-yl)ethyl)-3-(2,2,3,3-tetrafluoropropoxy) benzylamine] | did not significantly improve the performance | – | 11 | experienced more doorframe-associated falls than SH/VEH rats | 2.51+0.38 | 5.48 ± 0.45 s | fell as frequently as untreated DL rats | positive results |
